Source: ChEMBL document CHEMBL3580595, “Design, synthesis and biological evaluation of novel trimethylpyrazine-2-carbonyloxy-cinnamic acids as potent cardiovascular agents” (Medchemcomm, 2014)
Values belong to the compound of their own block, whether it stands above or below them.

How the values were obtained:
[1] = Anti-platelet activity in rabbit platelet-rich plasma assessed as inhibition of ADP-induced platelet aggregation at 12.5 uM incubated for 5 mins at 37 degC by aggregometry; assay type: functional; conditions: Oryctolagus cuniculus
[2] = Anti-platelet activity in rabbit platelet-rich plasma assessed as inhibition of ADP-induced platelet aggregation at 50 uM incubated for 5 mins at 37 degC by aggregometry; assay type: functional; conditions: Oryctolagus cuniculus
[3] = Anti-platelet activity in rabbit platelet-rich plasma assessed as inhibition of ADP-induced platelet aggregation incubated for 5 mins at 37 degC by aggregometry; assay type: functional; conditions: Oryctolagus cuniculus
[4] = Cytoprotective activity against H2O2-induced cytotoxicity in human EAhy926 cells at 12.5 uM pre-incubated for 24 hrs before H2O2 challenge for 12 hrs by MTT assay; assay type: functional, EA.hy 926
[5] = Anti-platelet activity in rabbit platelet-rich plasma assessed as inhibition of ADP-induced platelet aggregation at 100 uM incubated for 5 mins at 37 degC by aggregometry; assay type: functional; conditions: Oryctolagus cuniculus
[6] = Cytoprotective activity against H2O2-induced cytotoxicity in human EAhy926 cells at 100 uM pre-incubated for 24 hrs before H2O2 challenge for 12 hrs by MTT assay; assay type: functional, EA.hy 926
[7] = Cytoprotective activity against H2O2-induced cytotoxicity in human EAhy926 cells at 25 uM pre-incubated for 24 hrs before H2O2 challenge for 12 hrs by MTT assay; assay type: functional, EA.hy 926
[8] = Potency index, ratio of EC50 for lipoic acid to EC50 for test compound for cytoprotective activity against H2O2-induced cytotoxicity in human EAhy926 cells pre-incubated for 24 hrs before H2O2 challenge for 12 hrs by MTT assay; assay type: functional
[9] = Cytoprotective activity against H2O2-induced cytotoxicity in human EAhy926 cells at 50 uM pre-incubated for 24 hrs before H2O2 challenge for 12 hrs by MTT assay; assay type: functional, EA.hy 926
[10] = Anti-platelet activity in rabbit platelet-rich plasma assessed as inhibition of ADP-induced platelet aggregation at 25 uM incubated for 5 mins at 37 degC by aggregometry; assay type: functional; conditions: Oryctolagus cuniculus
[11] = Cytoprotective activity against H2O2-induced cytotoxicity in human EAhy926 cells pre-incubated for 24 hrs before H2O2 challenge for 12 hrs by MTT assay; assay type: functional, cell-based; conditions: EA.hy 926

- IC50 [3]: 77.4 µM
SMILES: CCOC(=O)/C=C/c1ccc(OC(=O)c2nc(C)c(C)nc2C)c(O)c1
- inhibition at 12.5 µM [1]: 22%
- inhibition at 50 µM [2]: 37.9%
- Activity [4]: 75.7%
- inhibition at 100 µM [5]: 58.4%
- Activity [6]: 375.3%
- Activity [7]: 207%
- Ratio EC50 [8]: 40
- Activity [9]: 210.8%
- inhibition at 25 µM [10]: 36.4%
- EC50 [11]: 1.7 µM

- IC50 [3]: 44.6 µM
SMILES: COc1cc(/C=C/C(=O)O)ccc1OC(=O)c1nc(C)c(C)nc1C
- inhibition at 12.5 µM [1]: 60.6%
- inhibition at 50 µM [2]: 46.2%
- Activity [4]: 38.7%
- inhibition at 100 µM [5]: 73.2%
- Activity [6]: 55.4%
- Activity [7]: 40.3%
- Activity [9]: 49.1%
- inhibition at 25 µM [10]: 22.8%
- EC50 [11]: 69.4 µM
